According to publication PMC7532663, “Pharmacological inhibition of mTORC1 increases CCKBR-specific tumor uptake of radiolabeled minigastrin analogue [^177Lu]Lu-PP-F11N” (Theranostics, 2020):

Tested on: A431/CCKBR cells
Assay: CellTiter 96 AQueous (MTS) proliferation assay
Format: cell-based, human
Settings: not given

Compound	Proliferation [A570]
CC1=C(O)C(=O)[C@@H]2O[C@@H]2C1=O [Terreic acid]	1.06
COCc1cc(O)c(O)c(O)c1-c1c(COC)cc(O)c(O)c1O [2,2',3,3',4,4'-Hexahydroxy-1,1'-biphenyl-6,6'-dimethanol dimethyl ether]	0.98
OC[C@H]1O[C@@H](n2cnc3cc(Cl)c(Cl)cc32)[C@H](O)[C@@H]1O [5,6-dichloro-1-β-D-ribofuranosylben zimidazole]	0.99
C[S+]([O-])c1ccc(-c2nc(-c3ccncc3)c(-c3ccc(F)cc3)[nH]2)cc1 (stereo not shown) [SB-203580]	0.95
CC[C@H](CO)Nc1nc(NCc2ccccc2)c2ncn(C(C)C)c2n1 [Roscovi tine]	0.91
O.O.O=c1c(O)c(-c2ccc(O)c(O)c2)oc2cc(O)cc(O)c12 [Quercetin·2H2O]	1.03
C/C(O)=C(\C#N)C(=O)Nc1cc(Br)ccc1Br [LFM-A13]	0.93
N#C/C(=C\c1ccc(O)c(O)c1)C(N)=S [TYRPHOSTIN 47]	0.98
CCCCCCCCCCCCC/C=C/[C@@H](O)[C@@H](N)CO [D-erythro-Sphingosine]	0.96

Same assay, conditions: 10 μM kinase inhibitor; MTS absorbance at 570 nm, reference 650 nm; mean of triplicate

Compound	Proliferation [A570]
O=C1Nc2ccccc2/C1=C1/Nc2ccccc2C1=O [Indirubin]	1.09
O=C1Nc2ccc(I)cc2/C1=C/c1cc(Br)c(O)c(Br)c1 [GW 5074]	0.93
CC1CNCCN1S(=O)(=O)c1cccc2cnccc12.Cl.Cl (stereo not shown) [H-7·2HCl]	0.98
N#CC(C#N)=Cc1ccc(O)c(O)c1 [TYRPHOSTIN 23]	1.07
CS(=O)(=O)O.Cn1cc(C2=C(c3cn(CCCSC(=N)N)c4ccccc34)C(=O)NC2=O)c2ccccc21 [Ro 31-8220 mesylate]	0.51
Cl.NC(N)=NCCNS(=O)(=O)c1cccc2cnccc12 [HA-1004·HCl]	1.05
COc1cccc(-c2cc(=O)c3ccccc3o2)c1N [PD-98059]	1.01
CC(C)n1cnc2c(NCc3ccccc3)nc(NCCO)nc21 [N9-isopropyl-olomoucine]	0.93
CC(C)(C)n1nc(-c2ccc(Cl)cc2)c2c(N)ncnc21 [PP2]	0.86
Oc1cc(O)cc(/C=C/c2ccc(O)c(O)c2)c1 [Piceatannol]	1.02
N#CC(C#N)=C(N)/C(C#N)=C/c1cc(O)c(O)c(O)c1 [TYRPHOSTIN 51]	1.05
BML-265	0.78
Cc1ccc(S(=O)(=O)/C=C/C#N)cc1 [BAY 11-7082]	1.14
O=C1Cc2c([nH]c3ccc(Br)cc23)-c2ccccc2N1 [Kenpaullone]	0.99
Cl.Cl.O=S(=O)(NCCNC/C=C/c1ccc(Br)cc1)c1cccc2cnccc12 [H-89·2HCl]	0.97
O=C(O)c1cc(N(Cc2ccccc2O)Cc2cc(O)ccc2O)ccc1O [Lavendustin A]	1.15
Cl.Cl.O=S(=O)(c1cccc2cnccc12)N1CCCNCC1 [HA-1077·2HCl]	0.99
Cl.O=S(=O)(c1cccc2c(I)cccc12)N1CCCNCC1 [ML-7·HCl]	0.95
CN(C)CCCn1cc(C2=C(c3c[nH]c4ccccc34)C(=O)NC2=O)c2ccccc21 [GF 109203X]	0.95
Cn1cnc2nc(NCCO)nc(NCc3ccccc3)c21 [Iso-olomoucine]	0.96
O=c1c(-c2ccc(O)cc2)coc2cc(O)cc(O)c12 [Genistein]	0.95
CCCCCCCCCCCCCCCC(=O)OC(CC(=O)[O-])C[N+](C)(C)C (racemic) [Palmitoyl-DL-carnitine]	0.91

Compound	Proliferation [A570]
O=P(O)(O)C(O)c1ccc2ccccc2c1 (stereo not shown) [Hydroxy-2-naphthalenylmethylphosp honic acid]	1.00
Cc1cc2ncc(-c3ccccc3)nc2cc1C [TYRPHOSTIN AG 1295]	0.94
Cn1cnc2c(NCc3ccccc3)nc(NCCO)nc21 [Olomoucine]	0.98
N#C/C(=C\c1ccc(O)c(O)c1)C(N)=O [TYRPHOSTIN 46]	1.04
O=c1cc(N2CCOCC2)oc2c(-c3ccccc3)cccc12 [LY 294002]	0.92
COC[C@H]1OC(=O)c2coc3c2[C@@]1(C)C1=C(C3=O)[C@@H]2CCC(=O)[C@@]2(C)C[C@H]1OC(C)=O [Wortmannin]	0.86
Cl.O=S(=O)(c1cccc2c(Cl)cccc12)N1CCCNCC1 [ML-9·HCl]	0.94
CC(C)(C)c1cc(C=C(C#N)C#N)cc(C(C)(C)C)c1O [TYRPHOSTIN 9]	0.62
CNCCNS(=O)(=O)c1cccc2cnccc12 [H-8]	0.99
CC(C)(C)c1cc(/C=C(\C#N)C(N)=S)cc(C(C)(C)C)c1O [AG-8 79]	0.80
Oc1c2ccccc2c2c3c(cccc13)N=N2 [SP 600125]	0.77
C=CC(=O)c1ccc2ccccc2c1 [ZM 449829]	0.98
CC(C)c1cc(/C=C(\C#N)C(=O)NCCCc2ccccc2)cc(C(C)C)c1O [SU1498]	0.98
CN([C@@H](Cc1ccc(OS(=O)(=O)c2cccc3cnccc23)cc1)C(=O)N1CCN(c2ccccc2)CC1)S(=O)(=O)c1cccc2cnccc12 [KN-62]	0.82
O=C(O)c1cc(NCc2cc(O)ccc2O)ccc1O [2-Hydroxy-5-(2,5-dihydroxybenzylamino)benzoi c acid]	1.01
Nc1ncnc2c1c(I)cn2[C@@H]1O[C@H](CO)[C@@H](O)[C@H]1O [5-Iodotubericidin]	1.15
N#CC(=Cc1ccc2[nH]ccc2c1)C(N)=C(C#N)C#N [AG-3 70]	0.97
CN(C)c1ccc(/C=C2\C(=O)Nc3ccccc32)cc1 [SU 4312]	0.97
O=C1Nc2ccccc2/C1=C1/Nc2ccccc2/C1=N\O [Indirubin-3'-monooxime]	0.87
CN[C@@H]1C[C@H]2O[C@@](C)([C@@H]1OC)n1c3ccccc3c3c4c(c5c6ccccc6n2c5c31)C(=O)NC4 [Staurosporine]	0.51
Nc1ncc2[nH]cnc2n1 [2-Am inopurine]	0.96
CC(=O)c1c(O)c(C)c(O)c(Cc2c(O)c3c(c(C(=O)/C=C/c4ccccc4)c2O)OC(C)(C)C=C3)c1O [Rottle rin]	0.64

Compound	Proliferation [A570]
CO[C@@H]1[C@H](N(C)C(=O)c2ccccc2)C[C@H]2O[C@]1(C)n1c3ccccc3c3c4c(c5c6ccccc6n2c5c31)C(=O)NC4 [PKC-4 12]	0.78
O=c1c(-c2ccc(O)cc2)coc2cc(O)ccc12 [Daidzein]	0.92
COC(=O)/C=C/c1cc(O)ccc1O [Erbstatin analog]	1.12
Cc1ccc(NC(=O)c2cccc(N(C)C)c2)cc1NC(=O)c1ccc(O)cc1 [ZM 336372]	0.87
Oc1ccc(-c2nc(-c3ccncc3)c(-c3ccc(F)cc3)[nH]2)cc1 [SB-202190]	1.02
COc1cc2ncc(-c3ccccc3)nc2cc1OC [AG-1296]	0.94
O=c1cc(-c2ccc(O)cc2)oc2cc(O)cc(O)c12 [Apigenin]	0.90
Cl.NCCNS(=O)(=O)c1cccc2cnccc12 [H-9·HCl]	1.03
N#C/C(=C\c1ccc(O)c(O)c1)C(=O)NCc1ccccc1 [AG-4 90]	1.03
CC(C)c1cnc(NC(=O)Cc2ccccc2)s1 [BML-259]	1.09
N#C/C(=C\c1ccc(O)c(O)c1)C(=O)Nc1ccccc1 [AG-4 94]	0.97
C[C@@H](N)[C@H]1CC[C@H](C(=O)Nc2ccncc2)CC1.Cl.Cl [Y-27632·2HCl]	1.02
COc1cc(/C=C(\C#N)C(N)=O)cc(CSc2nc3ccccc3s2)c1O [AG-8 25]	0.80
N#CC(=C(/N)Sc1ccccc1N)/C(C#N)=C(/N)Sc1ccccc1N [U-0126]	0.87
N#CC(C#N)=Cc1cc(O)c(O)c(O)c1 [TYRPHOSTIN 25]	1.12
COc1ccc(S(=O)(=O)N(CCO)c2ccccc2CN(C)C/C=C/c2ccc(Cl)cc2)cc1 [KN-93]	0.92
N#CC(C#N)=Cc1ccc([N+](=O)[O-])c(O)c1 [AG-1 26]	1.01
COc1cc2ncnc(Nc3cccc(Cl)c3)c2cc1OC [TYRPHOSTIN AG 1478]	0.72
Cc1cc(O)c2c(=O)c3c(O)cc(O)c4c5c(O)cc(O)c6c(=O)c7c(O)cc(C)c8c1c2c(c34)c(c78)c65 [Hypericin]	0.93
N#CC(C#N)=Cc1cc(O)c(O)c([N+](=O)[O-])c1 [TYRPHOSTIN AG 1288]	0.97
Cc1ccc(-c2nn(C(C)(C)C)c3ncnc(N)c23)cc1 [PP1]	0.80

Tested on: A431/CCKBR-tumor bearing nude mice
Assay: not given
Settings: co-injection of 60 nmol minigastrin

Compound	[177Lu]Lu-PP-F11N kidney uptake with blocking	[177Lu]Lu-PP-F11N uptake in the tumor and stomach with blocking
LEEEEEAYGWMDF [minigastrin]	not affected	reduced
